The record followed here is ChEMBL document CHEMBL1148293 (J Med Chem, 2004).

The target of assay [1] is Mu-type opioid receptor (Cavia porcellus, UniProt P97266). Description: Binding affinity against opioid receptor mu 1 using [3H]DAMGO as radioligand in guinea pig brain membranes. Type of assay: cell membranes.
Assay [2] deals with Kappa-type opioid receptor (Cavia porcellus, UniProt P41144). In words: Binding affinity against opioid receptor kappa 1 using [3H]-U-69,593 as radioligand in guinea pig brain membranes. Type of assay: cell membranes.
Sequence of Kappa-type opioid receptor (P41144 whole entry): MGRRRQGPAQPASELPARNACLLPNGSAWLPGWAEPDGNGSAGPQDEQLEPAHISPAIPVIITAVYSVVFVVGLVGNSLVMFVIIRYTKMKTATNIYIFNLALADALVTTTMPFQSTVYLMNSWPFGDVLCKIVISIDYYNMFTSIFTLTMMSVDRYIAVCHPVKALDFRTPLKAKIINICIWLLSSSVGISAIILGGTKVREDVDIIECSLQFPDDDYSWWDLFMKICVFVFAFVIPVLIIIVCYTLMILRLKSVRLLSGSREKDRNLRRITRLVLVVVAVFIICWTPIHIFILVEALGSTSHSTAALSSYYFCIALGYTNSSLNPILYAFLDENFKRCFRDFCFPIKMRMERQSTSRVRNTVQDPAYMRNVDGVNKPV
For assay [3], the target named is Opioid receptors; delta & kappa (UniProt P41145+P41143). Description: Selectivity ratio expressed as Ki of delta opioid receptor to that of kappa opioid receptor. In kind it is protein assay. As to conditions: Cavia porcellus.
Sequence of Opioid receptors; delta & kappa (P41143 whole entry, looked up): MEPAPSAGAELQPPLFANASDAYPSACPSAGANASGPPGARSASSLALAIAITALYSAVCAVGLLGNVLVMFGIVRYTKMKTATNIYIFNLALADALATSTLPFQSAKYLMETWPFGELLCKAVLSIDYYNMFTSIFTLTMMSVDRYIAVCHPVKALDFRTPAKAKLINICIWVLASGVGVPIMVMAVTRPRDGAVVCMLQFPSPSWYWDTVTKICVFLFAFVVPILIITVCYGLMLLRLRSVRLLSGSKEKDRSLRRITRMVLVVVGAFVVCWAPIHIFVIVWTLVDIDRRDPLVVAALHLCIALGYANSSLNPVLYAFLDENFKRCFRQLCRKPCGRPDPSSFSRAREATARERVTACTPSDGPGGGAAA
Sequence of Opioid receptors; delta & kappa (P41145 whole entry, looked up): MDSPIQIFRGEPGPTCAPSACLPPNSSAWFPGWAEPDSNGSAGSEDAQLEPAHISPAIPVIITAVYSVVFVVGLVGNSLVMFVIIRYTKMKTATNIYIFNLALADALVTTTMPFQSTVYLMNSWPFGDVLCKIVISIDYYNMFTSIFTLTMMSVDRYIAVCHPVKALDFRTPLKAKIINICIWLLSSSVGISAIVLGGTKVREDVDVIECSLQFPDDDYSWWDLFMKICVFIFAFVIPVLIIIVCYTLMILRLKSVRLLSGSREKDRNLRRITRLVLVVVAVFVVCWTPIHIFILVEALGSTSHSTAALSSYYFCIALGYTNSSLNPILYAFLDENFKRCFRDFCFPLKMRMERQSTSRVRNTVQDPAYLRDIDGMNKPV
For assay [4], the system named is Opioid receptors; mu & delta. Description: Selectivity ratio expressed as Ki of delta opioid receptor to that of mu opioid receptor. Type of assay: protein assay. The note with it: Cavia porcellus.

Sequence of Mu-type opioid receptor (P97266 whole entry): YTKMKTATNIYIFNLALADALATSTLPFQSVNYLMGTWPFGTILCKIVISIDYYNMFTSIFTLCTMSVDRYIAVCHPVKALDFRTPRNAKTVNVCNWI

With `c1cc2c(cc1-c1nnn[nH]1)[C@@]13CCCC[C@H]1[C@@H](C2)N(CC1CCC1)CC3`, the inhibition constant (Ki) in assay [1] came to 1100 nM; in assay [2], 850 nM.
Regarding `COc1ccc2c(c1)[C@@]13CCCC[C@H]1[C@H](NCC3)C2=O`, the values for the Ki in assay [1] and in assay [2] were 110 nM and 390 nM, respectively. Further, the Selectivity turned out to be 0.04 in assay [3] and 0.14 in assay [4].
In the same order, the values of `C#CCN1CC[C@]23CCCC[C@H]2[C@H]1C(=O)c1ccc(O)cc13` are 190 nM, 60 nM, 38 and 12.
In the same order, the values of `CN1CC[C@]23CCCC[C@H]2[C@H]1Cc1ccc(C#N)cc13` are 20 nM, 200 nM, > 5 and > 500.
As to `O=C(Nc1ccc2c(c1)[C@@]13CCCC[C@H]1[C@@H](C2=O)N(CC1CCC1)CC3)c1ccccc1`, the Ki in assay [1] worked out at 4.4 nM; in assay [2], 7.7 nM. Besides, the Selectivity in assay [3] was 49; in assay [4] it was 86.
In the case of `CN1CC[C@]23CCCC[C@H]2[C@H]1C(=O)c1ccc(O)cc13`, the Ki in assay [1] amounted to 21 nM; in assay [2] it was 47 nM. Also, the Selectivity was 26 in assay [3] and 57 in assay [4].
`N#Cc1ccc2c(c1)[C@@]13CCCC[C@H]1[C@@H](C2=O)N(CC1CCC1)CC3` gave a Ki in assay [2] of 400 nM.
With `NC(=O)c1ccc2c(c1)[C@@]13CCCC[C@H]1[C@@H](C2=O)N(CC1CCC1)CC3`, the Ki in assay [1] was determined as 2.5 nM; in assay [2], 2.7 nM. The values for the Selectivity in assay [3] and in assay [4] were 19 and 20, respectively.
In the case of `NC(=O)c1ccc2c(c1)[C@@]13CCCC[C@H]1[C@@H](C2)N(CC1CC1)CC3`, the Ki is 0.059 nM in assay [1] and 0.18 nM in assay [2]. Further, the Selectivity in assay [3] was 5.6; in assay [4], 17.
Take `CN1CC[C@]23CCCC[C@H]2[C@H]1Cc1ccc(-c2nnn[nH]2)cc13`: the Ki in assay [1] and in assay [2] was 380 nM each time.
Consider `O=C1c2ccc(O)cc2[C@@]23CCCC[C@H]2[C@@H]1N(CCc1ccccc1)CC3`, for which the results for the Ki in assay [1] and in assay [2] were 0.63 nM and 7.7 nM, respectively. In addition, the figures for the Selectivity in assay [3] and in assay [4] were 1.3 and 15, respectively.
In the same order, the values of `O=C1c2ccc(O)cc2[C@@]23CCCC[C@H]2[C@@H]1N(C[C@@H]1CCCO1)CC3` are 0.38 nM, 0.18 nM, 5.6 and 2.6.
The matching figures for `N#Cc1ccc2c(c1)[C@@]13CCCC[C@H]1[C@@H](C2)N(CC1CCC1)CC3`: 37 nM, 6 nM, 320 and 51.
In the same order, the values of `O=C1c2ccc(O)cc2[C@@]23CCCC[C@H]2[C@@H]1NCC3` are 20 nM, 25 nM, > 400 and > 500.
In the case of `Nc1ccc2c(c1)[C@@]13CCCC[C@H]1[C@@H](C2)N(CC1CC1)CC3`, the figures for the Ki in assay [1] and in assay [2] were 1.3 nM and 0.18 nM, respectively. Further, the Selectivity in assay [3] was 830; in assay [4] it was 120.
In the same order, the values of `C#CCOc1ccc2c(c1)[C@@]13CCCC[C@H]1[C@@H](C2=O)N(CC#C)CC3` are 710 nM, 500 nM, > 20 and > 14.
In the same order, the values of `O=C1c2ccc(O)cc2[C@@]23CCCC[C@H]2[C@@H]1N(CCF)CC3` are 560 nM, 250 nM, > 40 and > 18.
With `CN1CC[C@]23CCCC[C@H]2[C@H]1Cc1ccc(O)cc13`, the Selectivity in assay [3] was 1.8; in assay [4] it was 20.
Turning to `Nc1ccc2c(c1)[C@@]13CCCC[C@H]1[C@@H](C2=O)N(CC1CCC1)CC3`, the values for the Ki in assay [1] and in assay [2] were 23 nM and 4.7 nM, respectively. The Selectivity turned out to be 130 in assay [3] and 26 in assay [4].
The matching figures for `CN1CC[C@]23CCCC[C@H]2[C@H]1Cc1ccc(N)cc13`: 7.9 nM, 110 nM, 14 and 190.
As to `Oc1ccc2c(c1)[C@@]13CCCC[C@H]1[C@@H](C2)N(CC1CCC1)CC3` [BUTORPHAN], the inhibition constant (Ki) in assay [2] was determined as 0.079 nM. The Selectivity was found to be 75 in assay [3] and 26 in assay [4].
As to `CN1CC[C@]23CCCC[C@H]2[C@H]1Cc1ccc(CN)cc13`, the Ki was 66 nM in assay [1] and 120 nM in assay [2]. Moreover, the Selectivity in assay [3] is > 21; in assay [4] it was > 38.
In the case of `c1cc2c(cc1-c1nn[nH]n1)[C@@]13CCCC[C@H]1[C@@H](C2)N(CC1CCC1)CC3`, the Selectivity in assay [3] was > 12; in assay [4], > 9.
The matching figures for `CN1CC[C@]23CCCC[C@H]2[C@H]1Cc1ccc(-c2nn[nH]n2)cc13`: > 26 and > 26.
Take `CN1CC[C@]23CCCC[C@H]2[C@H]1Cc1ccc(C(N)=O)cc13`: the Ki in assay [1] was 0.073 nM; in assay [2], 3.9 nM. Besides, the Selectivity in assay [3] amounted to 3.3; in assay [4] it was 180.
Consider `O=C1c2ccc(O)cc2[C@@]23CCCC[C@H]2[C@@H]1N(CC1CC1)CC3`, for which the inhibitory constant (Ki) in assay [1] was determined as 240 nM; in assay [2], 24 nM. Further, the Selectivity in assay [3] was determined as 6; in assay [4], 0.6.
In the same order, the values of `O=C1c2ccc(O)cc2[C@@]23CCCC[C@H]2[C@@H]1N(Cc1ccc2ccccc2c1)CC3` are 2200 nM, 780 nM, > 13 and > 4.5.
The matching figures for `CC(C)=CCN1CC[C@]23CCCC[C@H]2[C@H]1C(=O)c1ccc(O)cc13`: 19 nM, 7.4 nM, 150 and 58.
For the compound `O=C1c2ccc(O)cc2[C@@]23CCCC[C@H]2[C@@H]1N(CCCF)CC3`, the Ki in assay [1] turned out to be 20 nM; in assay [2], 2.5 nM.
`NC(=O)c1ccc2c(c1)[C@@]13CCCC[C@H]1[C@@H](C2)N(CC1CCC1)CC3`: in assay [2], the Ki amounted to 0.087 nM.
For `Nc1ccc2c(c1)[C@@]13CCCC[C@H]1[C@@H](C2)N(CC1CCC1)CC3`, the Ki turned out to be 3.7 nM in assay [1] and 1.8 nM in assay [2]. Moreover, the Selectivity is 100 in assay [3] and 49 in assay [4].
Regarding `O=C1c2ccc(-c3nn[nH]n3)cc2[C@@]23CCCC[C@H]2[C@@H]1N(CC1CCC1)CC3`, the Selectivity was found to be 5 in assay [3] and 7.8 in assay [4].
Take `O=C1c2ccc(O)cc2[C@@]23CCCC[C@H]2[C@@H]1N(CC1CCC1)CC3`: the results for the Ki in assay [1] and in assay [2] were 3.3 nM and 0.48 nM, respectively. In addition, the Selectivity came out at 540 in assay [3] and 79 in assay [4].
The matching figures for `NCc1ccc2c(c1)[C@@]13CCCC[C@H]1[C@@H](C2)N(CC1CCC1)CC3`: 8.5 nM, 8.6 nM, 48 and 48.
The matching figures for `O=C(O)c1ccc2c(c1)[C@@]13CCCC[C@H]1[C@@H](C2=O)N(CC1CCC1)CC3`: 28 nM, 59 nM, 14 and 29.
Take `O=C1c2ccc(-c3nnn[nH]3)cc2[C@@]23CCCC[C@H]2[C@@H]1N(CC1CCC1)CC3`: the Ki in assay [1] turned out to be 230 nM; in assay [2] it was 360 nM.
Consider `O=C1c2ccc(OCC3CCC3)cc2[C@@]23CCCC[C@H]2[C@@H]1N(CC1CCC1)CC3`, for which the Ki turned out to be 800 nM in assay [1] and 290 nM in assay [2]. In addition, the Selectivity in assay [3] is 35; in assay [4], > 12.
